According to paper PMC5071873, “The Effects of Puerarin on Rat Ventricular Myocytes and the Potential Mechanism” (Scientific Reports, 2016):
Each block holds one compound with its values, some of them ahead of it.

Columns and labels:
Assay type in all cases: cell-based
Kv7.1 [1] = target: T1, Kv7.1 (Homo sapiens, UniProt P51787); assay: Whole-cell patch clamp of Kv7.1 currents (voltage steps) in transfected HEK293 cells; details: activator alone, HEK293
T1 construct: expressed in transfected cells; host or cells: HEK293
Description: (§1) The Tyrode’s solution contained (mM): 126 NaCl, 5.4 KCl, 1.8 CaCl2, 1 MgCl2, 0.33 NaH2PO4, 10 HEPES and 10 glucose, pH 7.4 (adjusted with NaOH). The Ca^2+-free Tyrode’s solution was prepared by removing CaCl2 from the Tyrode’s solution. The Kreb’s solution used for cell storage contained (mM): 70 glutamic acid, 30 KCl, 15 taurine, 0.5 MgCl2, 10 KH2PO4, 0.5 EGTA, 10 HEPES, 10 glucose, and 1% albumin, pH 7.4 (adjusted with KOH). The enzyme solution used for the rat cardiomyocyte isolation contained 0.08 g/L collagenase (type II) and 1.0 g/L BSA in Kreb’s solution. For action potential recording on cardiomyocyte, the pipette solution contained (mM): 100 potassium aspartate, 30 KCl, 1 MgCl2, 5 Mg-ATP, 5 EGTA, 5 HEPES, pH 7.3 (adjusted with KOH); the Tyrode’s solution was used as the standard bath solution. For whole-cell recording of IKs on myocytes, the pipette solution contained (mM): 125 potassium aspartate, 20 KCl, 1 MgCl2, 5 Mg-ATP, 10 EGTA, 5 HEPES, pH 7.3 (adjusted with KOH); the bath solution contained (mM): 132 NaCl, 4 KCl, 1.8 CaCl2, 1.2 MgCl2, 10 HEPES, 5 glucose, pH 7.4 (adjusted with NaOH). 3 μM nifedipine and 5 μM E-4031 were used to block the calcium current and IKr, respectively. For whole-cell recording on HEK-293 cells, the pipette solution contained (mM): 140 KCl, 2 MgCl2, 10 HEPES, 0.1 EGTA, 4 K2-ATP, pH 7.3 (adjusted with KOH); the bath solution contained (mM): 120 NaCl, 5 KCl, 1.5 CaCl2, 1 MgCl2, 10 HEPES, 10 glucose, pH 7.4 (adjusted with NaOH). For single-channel recording, the pipette solution (extracellular) contained (mM): 145 KCl, 10 HEPES, 10 glucose, pH 7.4 (adjusted with KOH); the bath solution (intracellular) contained (mM): 145 KCl, 1.2 MgCl2, 10 HEPES, 0.1 EGTA, pH 7.38 (adjusted with KOH).
(§2) Cell suspensions were transferred into a chamber on the stage of a Nikon Eclipse Ti inverted microscope (Tokyo, Japan). The whole-cell recordings were performed using isolated single ventricular myocytes. Patch electrodes were pulled from a horizontal microelectrode puller (P-1000, Sutter Instrument Co, USA) and fire polished to final tip resistance of 4.0–8.0 MΩ when filled with internal solutions. Signals were amplified with an Axopatch 200B amplifier (Axon Instruments, USA) and filtered at 1 kHz. The pCLAMP 9.0 software was used to generate current and voltage clamp protocols, acquire data, and analyse the current traces. The whole-cell series resistance was compensated to more than 80%. All of the experiments were performed at room temperature (22 ± 1 °C). The whole-cell IK1 was elicited by a ramp voltage protocol from −140 to + 40 mV in 1 s, or at a 0 mV holding potential to test potentials from −140 to + 40 mV in 10 mV increments. The IK1 was calculated as the difference between the peak inward current and the holding current level. The whole-cell Kv7.1/IKs were elicited from a −30 mV holding potential to test potentials from −80 to + 40 mV in 10 mV increments.
(§3) Human Kir2.1 cDNA, Kir2.3 cDNA, Kv7.1 cDNA and KCNE1 cDNA, was cloned in Human Embryonic Kidney 293 cells, respectively. In some cases, Kv7.1 cDNA and KCNE1 cDNA were simultaneously cloned in Human Embryonic Kidney 293 cells.

Kv7.1 [2] = target: T1, Kv7.1; assay: Single-channel inside-out patch clamp recording of Kv7.1; details: 293B applied after puerarin 100 μM
Description: as §1, with “3 μM nifedipine and 5 μM E-4031 were used to block the calcium current and IKr, respectively. For whole-cell recording on HEK-293 cells, the pipette solution contained (mM): 140 KCl, 2 MgCl2, 10 HEPES, 0.1 EGTA, 4 K2-ATP, pH 7.3 (adjusted with KOH); the bath solution contained (mM): 120 NaCl, 5 KCl, 1.5 CaCl2, 1 MgCl2, 10 HEPES, 10 glucose, pH 7.4 (adjusted with NaOH). For single-channel recording, the pipette solution (extracellular) contained (mM): 145 KCl, 10 HEPES, 10 glucose, pH 7.4 (adjusted with KOH); the bath solution (intracellular) contained (mM): 145 KCl, 1.2 MgCl2, 10 HEPES, 0.1 EGTA, pH 7.38 (adjusted with KOH).” left out
(§4) Single-channel activity was recorded at a series of holding levels ranging from 10 mV of 50 mV. […] Single-channel events were listed and analysed by pclampfit 9.0 (single-channel search-in-analyse function). […]

IKs channel = target: T2, IKs channel (Homo sapiens, UniProt P51787); assay: Single-channel inside-out patch clamp recording of IKs; details: 293B applied after puerarin 100 μM
T2 construct: expressed in transfected cells; host or cells: HEK293
Description: as §1, with “3 μM nifedipine and 5 μM E-4031 were used to block the calcium current and IKr, respectively. For whole-cell recording on HEK-293 cells, the pipette solution contained (mM): 140 KCl, 2 MgCl2, 10 HEPES, 0.1 EGTA, 4 K2-ATP, pH 7.3 (adjusted with KOH); the bath solution contained (mM): 120 NaCl, 5 KCl, 1.5 CaCl2, 1 MgCl2, 10 HEPES, 10 glucose, pH 7.4 (adjusted with NaOH). For single-channel recording, the pipette solution (extracellular) contained (mM): 145 KCl, 10 HEPES, 10 glucose, pH 7.4 (adjusted with KOH); the bath solution (intracellular) contained (mM): 145 KCl, 1.2 MgCl2, 10 HEPES, 0.1 EGTA, pH 7.38 (adjusted with KOH).” left out
as §4

[3] = target: T3, IKs channels (KCNQ and KCNE) (Homo sapiens, UniProt P51787); assay: Whole-cell patch clamp of IKs currents (Kv7.1 + KCNE1, voltage steps) in transfected HEK293 cells
T3 construct: expressed in transfected cells; host or cells: HEK293
Description: as §1, §2, §3

IKs = target: T4, IKs (Rattus norvegicus, UniProt Q9Z0N7); assay: Whole-cell recording of IKs on rat ventricular myocytes; details: forskolin alone
T4 construct: endogenous in cells; host or cells: isolated adult rat ventricular myocytes
Description: as §1, with “3 μM nifedipine and 5 μM E-4031 were used to block the calcium current and IKr, respectively. For whole-cell recording on HEK-293 cells, the pipette solution contained (mM): 140 KCl, 2 MgCl2, 10 HEPES, 0.1 EGTA, 4 K2-ATP, pH 7.3 (adjusted with KOH); the bath solution contained (mM): 120 NaCl, 5 KCl, 1.5 CaCl2, 1 MgCl2, 10 HEPES, 10 glucose, pH 7.4 (adjusted with NaOH). For single-channel recording, the pipette solution (extracellular) contained (mM): 145 KCl, 10 HEPES, 10 glucose, pH 7.4 (adjusted with KOH); the bath solution (intracellular) contained (mM): 145 KCl, 1.2 MgCl2, 10 HEPES, 0.1 EGTA, pH 7.38 (adjusted with KOH).” left out
Cell suspensions were transferred into a chamber on the stage of a Nikon Eclipse Ti inverted microscope (Tokyo, Japan). […] The IK1 was calculated as the difference between the peak inward current and the holding current level. […]

rat ventricular myocytes = assay: Action potential recording on isolated rat ventricular myocytes; details: isoproterenol 10 nM, comparing with control
Description: as §1
Single ventricular myocytes were isolated from adult rat hearts via enzymatic dissociation as previously described. Briefly, the rats were anesthetised with 25% chloral hydrate (0.1 g/100 g). Their hearts were excised rapidly and retrogradely perfused on a Langendorff apparatus with a Ca^2+-free Tyrode’s solution for 5 min before the perfusate was switched to an enzymatic solution for 10–20 min. The perfusate was finally changed to Kreb’s solution for 5 min. The perfusates were bubbled with 95% O2 + 5% CO2 and maintained at 37 °C. The ventricles w ere cut into small chunks and gently agitated in Kreb’s solution. The cells were filtered through nylon mesh (pore size 200 μm) and stored in Kreb’s solution at 4 °C.
Action potentials were elicited at 1 Hz by 2 ms current pulses applied using the patch pipette.
as §2

Compound: 8-Bromoadenosine-3′, 5′-cyclic monophosphorothioate [8-Br-cAMP]
- effect on Kv7.1 current (Kv7.1 [1]): significantly enhanced

Compound: O=C(O)[C@H]1O[C@@H](Oc2cc3oc(-c4ccccc4)cc(=O)c3c(O)c2O)[C@H](O)[C@@H](O)[C@@H]1O [Baicalin]
- maximal increased effect upon IKs currents ([3]; HEK293): 57.32 ± 3.07%
- saturation dosage, enhancement of IKs ([3]; HEK293): 1 mM
- EC50 ([3]; at the peak currents, non-linear Hill fit, read-out: EC50, enhancement of IKs currents): 138 µM
- Hill coefficient, enhancement of IKs ([3]; non-linear Hill fit): 0.993

Now from value to compound, other results behind:

- open probability of Kv7.1 channel (Kv7.1 [2]): further abolished
- open probability of IKs channel (IKs channel): further abolished
Compound: CCS(=O)(=O)N(C)[C@H]1c2cc(C#N)ccc2OC(C)(C)[C@@H]1O [293B]

- effect on Kv7.1 current (Kv7.1 [1]): significantly enhanced
- effect on IKs current in rat cardiac myocytes (IKs): significantly enhanced
Compound: C=C[C@@]1(C)CC(=O)[C@]2(O)[C@@]3(C)[C@@H](O)CCC(C)(C)[C@@H]3[C@H](O)[C@H](OC(C)=O)[C@@]2(C)O1 [Forskolin]

- effect on Kv7.1 current (Kv7.1 [1]): significantly enhanced
Compound: CC(C)NCC(O)c1ccc(O)c(O)c1 (centres unmarked) [Isoproterenol]
- effect on APD of rat ventricles (rat ventricular myocytes): significantly shortened
